Laboratory results as given in PMC12444839, “Development of Carborane‐Based Halogenated Naphthyridinone‐Analogues as Cannabinoid Receptor Type 2 (CB2R) Ligands” (Chemmedchem, 2025).
Like-named read-outs stand apart in the source and are kept apart here.

Tests used:
CB2R [1] = experiment: CB2R binding affinity, literature value of Lucchesi et al., other testing conditions; details: SI = K iCB1R/K iCB2R, from literature values
Excerpt: Table 1 Binding affinities of target compounds 2 o , m , p , 3 o , m , p , 4, and 5. | column: Selectivity index (SI) ^e)

CB2R [2] = target: CB2R; set-up: method as in PMID 25272206; details: mean of at least three separate experiments in duplicate, other testing conditions; read-out: K iCB2R mean; cited from earlier work
CB1R = target: CB1R; set-up: method as in PMID 25272206; details: mean of at least three separate experiments in duplicate, other testing conditions; read-out: K iCB1R mean; cited from earlier work
human CB2R = target: T1, human CB2R (Homo sapiens, UniProt P34972); experiment: in vitro binding affinity assay, membrane homogenates of CHO cells stably transfected with human CB2R, radioligand [3H]WIN55212-2; details: for Selectivity index (SI): SI = K iCB1R/K iCB2R; for Ki / K iCB2R mean: human CB2R, CHO membranes, [3H]WIN55212-2, mean of two values; for Ki: read-out: K iCB2R mean
T1 construct: expressed in transfected cells; host or cells: Chinese hamster ovary (CHO) cells, stably transfected; crude membrane homogenates
Excerpt: (§1) The eight target compounds 2 o , m , p , 3 o , m , p , 4, and 5 have been investigated in in vitro binding affinity assays using crude membrane preparations obtained from Chinese hamster ovary cells stably transfected with either human CB1R or CB2R and the target‐specific radioligands [ ^ 3 H]SR141716A and [ ^ 3 H]WIN55212‐2, respectively (structures shown in Figure S90, Supporting Information).
(§2) The affinity assays have been performed with membrane homogenates from Chinese hamster ovary cells (CHO) stably transfected either with human CB2R or CB1R. Already published protocols have been used.^[ [99] ^]

human CB1R = target: T2, human CB1R (Homo sapiens, UniProt P21554); experiment: in vitro binding affinity assay, membrane homogenates of CHO cells stably transfected with human CB1R, radioligand [3H]SR141716A; details: CHO membranes, mean of two values (c: mean of three values), read-out: K iCB1R mean
T2 construct: expressed in transfected cells; host or cells: Chinese hamster ovary (CHO) cells, stably transfected; crude membrane homogenates
Excerpt: as §1, §2

[3] = stability in DMSO/H2O (1:1, v/v) by HPLC-UV-MS; type: physicochemical; details: RP-HPLC
Method: The stability was determined analogously to the purity determination and as described in a previous publication.^[ [79] ^] Instead of CH3CN or MeOH, a solvent mixture of DMSO/H2O (1:1, v/v) was used for all samples, as well as the blank measurements. Measurements were conducted directly after solvent addition and up to three days (Figure S82–S89, Supporting Information).
5 Determi naƟon of the Stability of Compounds 2o,m,p, 3o,m,p, 4, and 5
The stability measurements have been performed with an HPLC-UV-MS on an RP column. Blank samples of pure DMSO/H20 (1:1, v/v) have been measured prior to the target compounds. The target compounds have been dissolved in DMSO/H2O (1:1, v/v) for stability determinaƟon. The measurements have been started directly aŌer the addiƟon of the water. The double peaks or shoulders of the signals of the compound are related to the column that has been used. Broad signals have been obser ved in case of the nido-carborane derivaƟves .
Figure S82. RP-HPLC chromatograms of blank (DMSO/H2O, black and dark blue) and compound 2o, retention time: 11.4 min, purity after 2.5 d: […]

CB2R [4] = target: CB2R; set-up: method as in PMID 36944112; details: previously reported; L7 (ortho): one value; read-out: K iCB2R mean; cited from earlier work

T2 sequence (P21554 whole entry): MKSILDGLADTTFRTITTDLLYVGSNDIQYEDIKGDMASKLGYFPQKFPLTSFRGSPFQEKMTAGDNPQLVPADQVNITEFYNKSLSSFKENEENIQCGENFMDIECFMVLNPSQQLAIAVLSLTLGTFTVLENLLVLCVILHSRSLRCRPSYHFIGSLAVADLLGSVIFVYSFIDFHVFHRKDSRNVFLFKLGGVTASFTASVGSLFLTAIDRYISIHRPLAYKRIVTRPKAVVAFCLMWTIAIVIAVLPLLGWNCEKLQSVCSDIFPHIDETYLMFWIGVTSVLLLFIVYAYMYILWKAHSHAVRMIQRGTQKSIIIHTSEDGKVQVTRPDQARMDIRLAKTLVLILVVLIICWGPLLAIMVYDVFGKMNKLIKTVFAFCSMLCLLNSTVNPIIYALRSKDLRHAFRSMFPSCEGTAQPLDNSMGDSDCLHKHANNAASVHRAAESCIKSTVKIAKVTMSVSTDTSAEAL
T1 sequence (P34972 whole entry): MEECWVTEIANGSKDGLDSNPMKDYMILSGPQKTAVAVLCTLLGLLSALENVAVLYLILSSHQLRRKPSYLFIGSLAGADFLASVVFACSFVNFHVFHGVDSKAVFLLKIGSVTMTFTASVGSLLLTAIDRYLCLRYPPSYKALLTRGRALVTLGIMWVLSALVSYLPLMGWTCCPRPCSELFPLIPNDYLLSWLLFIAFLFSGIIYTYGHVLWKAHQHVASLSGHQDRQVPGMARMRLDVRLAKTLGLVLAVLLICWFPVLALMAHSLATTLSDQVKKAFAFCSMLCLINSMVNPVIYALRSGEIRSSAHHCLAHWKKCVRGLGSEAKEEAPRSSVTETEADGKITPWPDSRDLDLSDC

Question: Which results are given for `C[C@H]1CC[C@@H](NC(=O)c2cc3cc(Br)cnc3n(Cc3ccc(F)cc3)c2=O)CC1` [L1 (cis)]?
Answer: Selectivity index (SI) (CB2R [1]): 1010; Ki (CB2R [2]): 0.00012 ± 2e-06 µM; Ki (CB1R): 0.121 ± 0.00532 µM

Question: With “1‐(4‐Fluorobenzyl)‐6‐iodo‐2‐oxo‐N‐(1,12‐closo‐dicarba‐dodecaborane)‐1,2‐dihydro‐1,8‐naphthyridine‐3‐carboxamide [3 p]” as the compound, how does the “Selectivity index (SI)” value (human CB2R) read?
Answer: 730

Question: What about the Ki (human CB2R) of the same compound?
Answer: 0.00755 µM

Question: What about the Ki (human CB1R) of the same compound?
Answer: 5.51 µM

Question: And the “purity after 1 d (stability)” value [3]?
Answer: > 98%

Question: With “(Z)‐N‐[3‐(4‐fluoro[^18F]butyl‐d 8)‐4,5‐dimethylthiazole‐2(3 H)‐ylidene]‐(1,7‐dicarba‐closo‐dodecaboranyl)‐carboxamide [[18F]LUZ5-d8]” as the compound, how does the Ki (CB2R [4]) read?
Answer: 0.0008 µM

Question: What does the source list for “Sodium 1‐(4‐Fluorobenzyl)‐6‐iodo‐2‐oxo‐N‐(7,8‐nido‐dicarba‐dodecahydroundecaborate(–1))‐1,2‐dihydro‐1,8‐naphthyridine‐3‐carboxamide [Compound 5]”?
Answer: Selectivity index (SI) (human CB2R): 247; K iCB2R mean (human CB2R): very low affinity; Ki (human CB2R): 0.368 µM; Ki (human CB1R): 90.8 µM; purity after 1 d (stability) [3]: > 97%

Question: With “6‐Bromo‐1‐(4‐fluorobenzyl)‐2‐oxo‐N‐(1,7‐closo‐dicarba‐dodecaborane)‐1,2‐dihydro‐1,8‐naphthyridine‐3‐carboxamide [2 m]” as the compound, how does the “Selectivity index (SI)” value (human CB2R) read?
Answer: 273

Question: And the Ki (human CB2R)?
Answer: 0.00616 µM

Question: What about the Ki (human CB1R) of the same compound?
Answer: 1.68 µM

Question: And the “purity after 1 d (stability)” value [3]?
Answer: ~ 98%

Question: Which “Selectivity index (SI)” value (human CB2R) does the source give for “Sodium 6‐Bromo‐1‐(4‐fluorobenzyl)‐2‐oxo‐N‐(7,8‐nido‐dicarba‐dodecahydroundecaborate(–1))‐1,2‐dihydro‐1,8‐naphthyridine‐3‐carboxamide [Compound 4]” here?
Answer: 62

Question: What about the “K iCB2R mean” value (human CB2R) of the same compound?
Answer: very low affinity

Question: And the Ki (human CB2R)?
Answer: 0.857 µM

Question: And the Ki (human CB1R)?
Answer: 53.2 µM

Question: What about the “purity after 3 d (stability)” value ([3]; after 3 d) of the same compound?
Answer: ~ 98%

Question: For “6‐Bromo‐1‐(4‐fluorobenzyl)‐2‐oxo‐N‐(1,12‐closo‐dicarba‐dodecaborane)‐1,2‐dihydro‐1,8‐naphthyridine‐3‐carboxamide [2 p]”, which “Selectivity index (SI)” value (human CB2R) is on record?
Answer: 937

Question: And the Ki (human CB2R)?
Answer: 0.00771 µM

Question: What about the Ki (human CB1R) of the same compound?
Answer: 7.22 µM

Question: With “1‐(4‐Fluorobenzyl)‐6‐iodo‐2‐oxo‐N‐(1,2‐closo‐dicarba‐dodecaborane)‐1,2‐dihydro‐1,8‐naphthyridine‐3‐carboxamide [3 o]” as the compound, how does the “Selectivity index (SI)” value (human CB2R) read?
Answer: 260

Question: What about the Ki (human CB2R) of the same compound?
Answer: 0.0152 µM

Question: And the Ki (human CB1R)?
Answer: 3.94 µM

Question: And the “purity after 6 h (stability)” value [3]?
Answer: 93%

Question: And the “purity after 6 h (stability)” value ([3]; listed as 3o)?
Answer: ~ 93%

Question: What does the source list for “6‐Bromo‐1‐(4‐fluorobenzyl)‐2‐oxo‐N‐(1,2‐closo‐dicarba‐dodecaborane)‐1,2‐dihydro‐1,8‐naphthyridine‐3‐carboxamide [2 o]”?
Answer: Selectivity index (SI) (human CB2R): 3378; Ki (human CB2R): 0.029 µM; Ki (human CB1R): 97.8 µM; purity after 2.5 d (stability) ([3]; after 2.5 d): > 98%

Question: With “1‐(4‐Fluorobenzyl)‐6‐iodo‐2‐oxo‐N‐(1,7‐closo‐dicarba‐dodecaborane)‐1,2‐dihydro‐1,8‐naphthyridine‐3‐carboxamide [3 m]” as the compound, how does the “Selectivity index (SI)” value (human CB2R) read?
Answer: 877

Question: And the Ki (human CB2R)?
Answer: 0.00695 µM

Question: What about the Ki (human CB1R) of the same compound?
Answer: 6.09 µM

Question: What about the “purity after 1 d (stability)” value [3] of the same compound?
Answer: ~ 98%
